Assay results as given in US8476246B2, “Combination of a chemotherapeutic agent and an inhibitor of the TGF-beta system” (Antisense Pharma GmbH, priority 2009, dated 2013).
Entries after “also recorded” stand apart in the source; their conditions may differ. Read-outs that look alike come from different tables or passages of the source.

Experiments:
Hup-T3 cells = assay: Proliferation/viability of Hup-T3 cells (EZ4U method); type: cell-based, human; details: gemcitabine 0.05 nM to 5 μM alone, 7 days, FIG. 2
Description: In a 96-well tissue culture plate 4000 cells/well of a human pancreatic tumor cell line Hup-T3 (German Collection of Microorganisms and Cell Cultures GmbH, Braunschweig, Germany) were seeded. The Hup-T3 cell line is not resistant to gemcitabine. One day after seeding, cells were co-treated with […] different gemcitabine concentrations, i.e., 5 μM, 2 μM, 800 nM, 320 nM, 128 nM, 51.2 nM, 20.5 nM, 8.2 nM, 3.3 nM and 0 nM gemcitabine, respectively, in combination with 0 μM (▪), 5 μM (Δ) or 10 μM (∇) TGF-beta 2 antisense oligonucleotide, for example SEQ ID No. 30, for 5 h. […]
The proliferation/viability of the Hup-T3 cells was analyzed using the EZ4U method according to the manufacturer's instructions (Biozol Diagnostca Vertrieb GmbH), and the OD was measured after an incubation time of 75 min with EZ4U solution using the plate reader “Fluostar-Optima” (BMG LABTECH GmbH). […]
The proliferation/viability of the Hup-T3 cells (▪) was analyzed using the EZ4U method according to the manufacturer's instructions (Biozol Diagnostca Vertrieb GmbH), and the OD was measured after an incubation time of 75 min with EZ4U solution using the plate reader “Fluostar-Optima” (BMG LABTECH GmbH).

TGF-beta 2 = TGF-beta 2 secretion of Hup-T3 cells (TGF-beta 2-ELISA of cell supernatants); type: cell-based, human
Description: After 7 days of total treatment, cell supernatants were removed and the TGF-beta 2 concentration was analyzed (see Example 4, and FIG. 4).
The effect of gemcitabine on TGF-beta 2 expression and secretion, respectively, was investigated on Hup-T3 cells. Gemcitabine was administered to the Hup-T3 cells in following concentrations: 5 μM, 0.5 μM, 50 nM, 5 nM, 0.5 nM, 0.05 nM or 0 nM, and the cells were incubated for 5 h according to Example 1. The treatment solution was optionally replaced after 3 days.
After 7 days of treatment, cell supernatants were removed for the analysis of TGF-beta 2 concentration. The TGF-beta 2 secretion (Δ) was quantified by a standard TGF-beta 2-ELISA Kit (R&D Systems, Minneapolis, USA) according to the manufacturer's instructions.
In a further experiment the effect of the TGF-beta 2 antisense oligonucleotide on the expression and secretion, respectively, of TGF-beta 2 was investigated on Hup-T3 cells. The TGF-beta 2 antisense oligonucleotide, for example SEQ ID No. 30, was administered to the Hup-T3 cells as described in Example 1 (0 μM, 1 μM, 2.5 μM, 5 μM, 10 μM, 20 μM, 40 μM, 60 μM, or 80 μM TGF-beta 2 antisense oligonucleotide). The cells were incubated according to Example 1 and after 7 days of treatment, the cell supernatants were removed for the analysis of TGF-beta 2 concentration using the TGF-beta 2-ELISA Kit of R&D Systems.
Hup-T3 cells were incubated with different concentrations of gemcitabine (2 μM, 800 nM, 320 nM, 128 nM, 51.2 nM, 20.5 nM, 8.2 nM, and 0 nM) and TGF-beta 2 antisense oligonucleotide according to Example 1 (0 μM (▪), 5 μM (Δ), or 10 μM (•) TGF-beta 2 antisense oligonucleotide) and the cell supernatants were removed after 7 days of treatment for the analysis of TGF-beta 2 concentration using the TGF-beta 2-ELISA Kit of R&D Systems.

[1] = system: gemcitabine-resistant human bladder cancer cells; details: cited from earlier work
MEL-Juso cells = assay: Proliferation/viability of MEL-Juso cells (Cyquant method); type: cell-based, human; details: 10 μM TGF-beta 2 antisense oligonucleotide in comparison to 0 μM, FIG. 5
Description: In a 48-well tissue culture plate 10 000 cells/well of a human melanoma cell line MEL-Juso (CLS—Cell Lines Service, Eppelheim, Germany) were seeded. The MEL-Juso cell line is not resistant to temozolomide. Six hours after seeding, cells were co-treated with eight different temozolomid concentrations, i.e., 200 μM, 100 μM, 50 μM, 25 μM, 12.5 μM, 6.25 μM, 3.125 μM, and 0 μM temozolomide, respectively, in combination with 0 μM (▪), 5 μM (Δ) or 10 μM (∇) TGF-beta 2 antisense oligonucleotide, for example SEQ ID No. 30, for 2 days. Substances (temozolomide and TGF-beta 2 antisense oligonucleotide) were prepared in aqueous solution, stored at 4° C. and were used for 4 weeks. Thereafter the first treatment solution comprising temozolomidee and the TGF-beta 2 antisense oligonucleotide was removed and replaced by a second treatment solution containing the TGF-beta 2 antisense oligonucleotide and temozolomide in the above mentioned concentrations for further 2 days. […]
The proliferation/viability of the MEL-Juso cells was analyzed using the Cyquant method according to the manufacturer's instructions (Invitrogen), and the OD was measured after an incubation time of 60min with Cyquant solutions (detection reagent, direct nucleic acid stain, and direct nucleic acid background suppressor) using the plate reader “Fluostar-Optima” (BMG LABTECH GmbH).

A-172 cells = assay: Cytotoxicity on A-172 cells (LDH release, CytoToxicity Detection Kit Plus); type: cell-based; details: combination of temozolomide (200 or 800 μM) and 10 μM antisense oligonucleotide, 5 d
Description: A-172 cells (about 7000 cells/well) were seeded into 48-well plates, and 6 h after seeding 0 μM, 200 μM, or 800 μM temozolomide either alone (grey column) or in combination with 10 μM of a TGF-beta 2 antisense oligonuclotide (black column), for example SEQ ID No. 30, was added to the cells. After 2 d of incubation, the treatment solutions were replaced and cells were incubated for additional 3 d (total treatment time: 5 d). […] The cells of the supernatant were lysed by addition of lysis solution for example from the CytoToxicity Detection Kit Plus (Roche Diagnostics GmbH) and the LDH levels were determined for example according to the manual of the kit.

| Molecule | effect of gemcitabine on proliferation and viability (Hup-T3 cells) | effect of gemcitabine on TGF-beta 2 secretion (TGF-beta 2; gemcitabine 0.05 nM to 5 μM, 7 days, FIG. 2) | effect of gemcitabine on the suppression of TGF-beta 2 secretion by TGF-beta 2 antisense oligonucleotide (TGF-beta 2; gemcitabine 8.2 nM to 2 μM with 5 or 10 μM antisense oligonucleotide, FIG. 4) | IC50 ([1]; gemcitabine-resistant cells chemosensitized with sCLU-2 antisense oligonucleotide) | IC50 ([1]; gemcitabine-resistant cells, before sCLU-2 antisense oligonucleotide) | effect on TGF-beta 2 secretion in the presence of gemcitabine (TGF-beta 2; 0, 5 or 10 μM antisense oligonucleotide, gemcitabine 8.2 nM to 2 μM, FIG. 4) | effect on TGF-beta 2 secretion (TGF-beta 2; antisense oligonucleotide 1 to 80 μM, no gemcitabine, 7 days, FIG. 3) | reduction of the IC50 of temozolomide (cytotoxicity) (MEL-Juso cells) | amount of released LDH (A-172 cells) |
| --- | --- | --- | --- | --- | --- | --- | --- | --- | --- |
| Nc1ccn([C@@H]2O[C@H](CO)[C@@H](O)C2(F)F)c(=O)n1 [gemcitabine] | has a cytotoxic effect; also recorded: decreases at higher gemcitabine concentrations | does not specifically influence the TGF-beta 2 secretion; also recorded: no specific influence | does not impair the suppression of TGF-beta 2 secretion; also recorded: does not affect the inhibitory effect of the antisense oligonucleotide on its target | 10 nM | 100 nM | – | – | – | – |
| CGGCATGTCTATTTTGTA (listed as DNA, chemistry not given here) [TGF-beta 2 antisense oligonucleotide] | – | – | – | – | – | inhibited TGF-beta 2 secretion in a dose dependent manner | inhibited the TGF-beta 2 expression and secretion, respectively, in a dose dependent manner; also recorded: dose dependent inhibitory effect | about 2 × | significantly increased |
